Several values for one entry are separate records, joined by “and”; a condition that tells them apart may be missing. Equal entries are not always repeated. Activity calls are given as the source filed them.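 How the source made its calls: active means IC50 against MMP-2 at or below 100 µM; inactive means the rest.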
These molecules were tested against 72 kDa type IV collagenase (Homo sapiens) (UniProt P08253) (assay: human MMP-2 protease inhibitors, selectivity check – biochemical, fluorescence, counter-screen for RPN11 inhibitor project, SAR follow-up (AID 686932)). Conditions: recombinant MMP-2, FRET peptide cleavage fluorescence.
Sequence of 72 kDa type IV collagenase (Homo sapiens) (P08253 whole entry, looked up): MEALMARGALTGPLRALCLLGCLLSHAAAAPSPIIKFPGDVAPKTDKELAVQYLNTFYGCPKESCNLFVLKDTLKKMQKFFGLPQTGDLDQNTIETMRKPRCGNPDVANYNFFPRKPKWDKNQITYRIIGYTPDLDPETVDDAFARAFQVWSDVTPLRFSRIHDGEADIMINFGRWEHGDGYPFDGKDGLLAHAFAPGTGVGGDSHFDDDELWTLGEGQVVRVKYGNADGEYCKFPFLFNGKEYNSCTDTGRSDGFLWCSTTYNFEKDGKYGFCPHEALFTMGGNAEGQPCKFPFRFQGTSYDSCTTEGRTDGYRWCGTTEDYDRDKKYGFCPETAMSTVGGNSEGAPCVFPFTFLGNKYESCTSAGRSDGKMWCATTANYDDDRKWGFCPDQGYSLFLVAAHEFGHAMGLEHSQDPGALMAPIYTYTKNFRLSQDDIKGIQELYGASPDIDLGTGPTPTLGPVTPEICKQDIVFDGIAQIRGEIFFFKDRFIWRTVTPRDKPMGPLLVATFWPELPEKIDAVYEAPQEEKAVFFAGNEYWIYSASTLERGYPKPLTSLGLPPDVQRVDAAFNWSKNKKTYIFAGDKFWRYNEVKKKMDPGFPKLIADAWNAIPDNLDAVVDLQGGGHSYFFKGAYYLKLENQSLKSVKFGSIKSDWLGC

IC50 | Compound
7.06 µM | O=C(Sc1cccc2cccnc12)c1ccccc1I
> 99 µM (inactive) | Cc1ccc(C(=O)Sc2cccc3cccnc23)cc1
> 99 µM (inactive) | O=C(Sc1cccc2cccnc12)c1ccc(F)cc1
> 99 µM (inactive) | COc1ccccc1C(=O)Sc1cccc2cccnc12
16.2 µM | COc1ccc(C(=O)Sc2cccc3cccnc23)cc1
> 99 µM (inactive) | O=C(Sc1cccc2cccnc12)c1ccccc1F
38.5 µM | Cc1cccc(C(=O)Sc2cccc3cccnc23)c1
21.8 µM | O=C(Sc1cccc2cccnc12)c1ccccc1
> 99 µM (inactive) | O=C(Sc1cccc2cccnc12)c1cccc(Cl)c1
> 99 µM (inactive) | O=C(Sc1cccc2cccnc12)c1ccc(F)c(F)c1
> 99 µM (inactive) | CC(C)Cc1ccc(C(=O)Sc2cccc3cccnc23)cc1
> 99 µM (inactive) | O=C(Sc1cccc2cccnc12)c1cccc(C(F)(F)F)c1
> 99 µM (inactive) | O=C(Sc1cccc2cccnc12)c1ccc([N+](=O)[O-])cc1
> 99 µM (inactive) | O=C(Sc1cccc2cccnc12)c1ccccc1Br
> 99 µM (inactive) | Cc1ccccc1C(=O)Sc1cccc2cccnc12
> 99 µM (inactive) | O=C(Sc1cccc2cccnc12)c1ccc2c(c1)OCO2
3.38 µM | N#Cc1ccc(C(=O)Sc2cccc3cccnc23)cc1
9.07 µM | O=C(Sc1cccc2cccnc12)c1ccc(F)cc1F
> 99 µM (inactive) | N#Cc1cccc(C(=O)Sc2cccc3cccnc23)c1
7.85 µM | CCCc1ccc(C(=O)Sc2cccc3cccnc23)cc1
> 99 µM (inactive) | O=C(Sc1cccc2cccnc12)c1ccccc1Cl
> 99 µM (inactive) | COc1ccc(C(=O)Sc2cccc3cccnc23)cc1F
> 99 µM (inactive) | O=C(Sc1cccc2cccnc12)c1ccc(C(F)(F)F)cc1
> 99 µM (inactive) | COc1cccc(C(=O)Sc2cccc3cccnc23)c1

More lines, now with the values behind:

Compound | IC50
COC(=O)c1cnc2c(SSc3cccc4cc(C(=O)OC)cnc34)cccc2c1 | 24 µM
O=C(Sc1cccc2cccnc12)C1CCCCC1 | 20.5 µM
O=C(Sc1cccc2cccnc12)c1ccccc1[N+](=O)[O-] | inactive
COC(=O)C[C@H](NC(=O)c1cnc2c(SSc3cccc4cc(C(=O)N[C@@H](CC(=O)OC)C(=O)OC)cnc34)cccc2c1)C(=O)OC | > 99 µM (inactive)
COc1ccc(C(=O)Sc2cccc3cccnc23)cc1OC | > 99 µM (inactive)
O=C(Sc1cccc2cccnc12)c1cccc2ccccc12 | 29.3 µM
O=C(Sc1cccc2cccnc12)c1c(Cl)cccc1Cl | 8.92 µM
O=C(O)c1cnc2c(SSc3cccc4cc(C(=O)O)cnc34)cccc2c1 | > 99 µM (inactive)
CC(C)(C)OC(=O)CCNC(=O)c1cnc2c(SSc3cccc4cc(C(=O)NCCC(=O)OC(C)(C)C)cnc34)cccc2c1 | > 99 µM (inactive)
C[C@@H](C(=O)O)N(C)C(=O)c1cnc2c(SSc3cccc4cc(C(=O)N(C)[C@@H](C)C(=O)O)cnc34)cccc2c1 | > 99 µM (inactive)
CCOc1ccccc1C(=O)Sc1cccc2cccnc12 | 17 µM and > 99 µM (inactive)
CC[C@@H](C)[C@H](NC(=O)c1cnc2c(SSc3cccc4cc(C(=O)N[C@H](C(=O)OC)[C@@H](C)CC)cnc34)cccc2c1)C(=O)OC | > 99 µM (inactive)
O=C(Sc1cccc2cccnc12)c1ccccc1OC(F)(F)F | > 99 µM (inactive)
O=C(O)[C@@H]1CCCN1C(=O)c1cnc2c(SSc3cccc4cc(C(=O)N5CCC[C@H]5C(=O)O)cnc34)cccc2c1 | 16.3 µM
COC(=O)[C@H](C)NC(=O)c1ccnc2c(SSc3cccc4c(C(=O)N[C@@H](C)C(=O)OC)ccnc34)cccc12 | > 99 µM (inactive)
COC(=O)[C@@H](NC(=O)c1cnc2c(SSc3cccc4cc(C(=O)N[C@H](C(=O)OC)C(C)C)cnc34)cccc2c1)C(C)C | > 99 µM (inactive)
COC(=O)[C@@H]1CCCN1C(=O)c1cnc2c(SSc3cccc4cc(C(=O)N5CCC[C@H]5C(=O)OC)cnc34)cccc2c1 | > 99 µM (inactive)
CC(C)[C@H](NC(=O)c1cnc2c(SSc3cccc4cc(C(=O)N[C@H](C(=O)O)C(C)C)cnc34)cccc2c1)C(=O)O | > 99 µM (inactive)
COC(=O)[C@H](C)NC(=O)c1cnc2c(SSc3cccc4cc(C(=O)N[C@@H](C)C(=O)OC)cnc34)cccc2c1 | > 99 µM (inactive)
CC[C@@H](C)[C@H](NC(=O)c1cnc2c(SSc3cccc4cc(C(=O)N[C@H](C(=O)O)[C@H](C)CC)cnc34)cccc2c1)C(=O)O | 20.2 µM
CC(C)C[C@H](NC(=O)c1cnc2c(SSc3cccc4cc(C(=O)N[C@@H](CC(C)C)C(=O)O)cnc34)cccc2c1)C(=O)O | 9.21 µM
COC(=O)[C@H](CC(C)C)NC(=O)c1cnc2c(SSc3cccc4cc(C(=O)N[C@@H](CC(C)C)C(=O)OC)cnc34)cccc2c1 | > 99 µM (inactive)
COC(=O)[C@H](CO)NC(=O)c1cnc2c(SSc3cccc4cc(C(=O)N[C@@H](CO)C(=O)OC)cnc34)cccc2c1 | > 99 µM (inactive)
COC(=O)[C@H](C)N(C)C(=O)c1cnc2c(SSc3cccc4cc(C(=O)N(C)[C@@H](C)C(=O)OC)cnc34)cccc2c1 | > 99 µM (inactive)

— PubChem BioAssay AID686932 (Sanford-Burnham Center for Chemical Genomics, 2013)
